Values quoted from earlier work in PMC6321136, “Combined In Vitro Studies and in Silico Target Fishing for the Evaluation of the Biological Activities of Diphylleia cymosa and Podophyllum hexandrum” (Molecules, 2018).

System: Cytotoxicity, Agonist, RXR
Set-up: method as in PubChem Bioassay AID 1159529
Conditions: ref PubChem Bioassay AID 1159529; cited from earlier work

Which “Exper. Activity” value does the source give for `COc1cc([C@@H]2c3cc4c(cc3[C@H](O)[C@H]3COC(=O)[C@H]23)OCO4)cc(OC)c1OC` [Podophyllotoxin, podophyllotoxin] here?
Its value is “Inactive”.
